The target of experiment [1] is T1, Aromatase (Homo sapiens, UniProt P11511).
T1 sequence (P11511 whole entry): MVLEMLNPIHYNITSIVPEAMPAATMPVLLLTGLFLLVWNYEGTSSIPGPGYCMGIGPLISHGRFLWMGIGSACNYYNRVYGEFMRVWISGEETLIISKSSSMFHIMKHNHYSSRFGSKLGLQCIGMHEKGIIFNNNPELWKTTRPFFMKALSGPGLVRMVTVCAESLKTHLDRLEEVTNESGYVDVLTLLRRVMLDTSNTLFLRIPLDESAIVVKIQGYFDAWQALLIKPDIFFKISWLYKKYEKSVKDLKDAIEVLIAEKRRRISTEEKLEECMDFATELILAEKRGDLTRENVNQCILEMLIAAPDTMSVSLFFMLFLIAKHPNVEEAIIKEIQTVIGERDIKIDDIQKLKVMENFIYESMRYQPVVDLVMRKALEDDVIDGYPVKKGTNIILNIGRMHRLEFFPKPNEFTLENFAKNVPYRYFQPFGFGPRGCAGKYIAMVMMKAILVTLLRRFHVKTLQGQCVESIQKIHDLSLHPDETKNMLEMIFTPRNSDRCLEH
The experiment can be described thus: Inhibition of human placental microsomal aromatase using [1beta-3H] androstenedione as substrate assessed as tritiated H2O release after 15 mins by liquid scintillation counting method.

Experiment [2] concerns the target T1, Aromatase.
Description: Competitive inhibition of human placental microsomal aromatase using androgen as substrate
For experiment [3], the target named is T1, Aromatase. The experiment can be described thus: Inhibition of human aromatase using testosterone as substrate incubated for 1 hr by HTRF assay.
Experiment [4] deals with T1, Aromatase. The experiment can be described thus: Inhibition of human placental microsomal aromatase using [1beta-3H] androstenedione as substrate assessed as tritiated H2O release preincubated for 5 mins followed by protein addition measured after 20 mins by beta counting method.
In experiment [5] the target is T1, Aromatase. Put plainly: Inhibition of particulate fractions of human breast cancer derived aromatase.
In experiment [6] the target is T1, Aromatase. The experiment can be described thus: Inhibition of human placental microsomal aromatase using testosterone as substrate assessed as formation of estradiol after 10 mins.

Molecules are shown by their SMILES.

In the case of `C=CC[C@@H]1CC2=CC(=O)CC[C@]2(C)[C@H]2CC[C@]3(C)C(=O)CC[C@H]3[C@H]12`, the concentration for half-maximal inhibition (IC50) at Aromatase [1] was 590 nM. At Aromatase [2], `COc1ccc2c(Cc3ccccc3)c(-c3ccc(Cl)cc3)c(=O)oc2c1` had a Ki of 84 nM. This counts as double-digit nanomolar. For `C=CC[C@@H]1CC2=CC(=O)C=C[C@]2(C)[C@H]2CC[C@]3(C)[C@@H](O)CC[C@H]3[C@H]12`, at Aromatase [1], the concentration for half-maximal inhibition (IC50) came out at 450 nM. Still for that read-out and setting: as for `C=CC[C@@H]1CC2=CCCC[C@]2(C)[C@H]2CC[C@]3(C)C(=O)CC[C@H]3[C@H]12`, the figure is 750 nM. Compound `Fc1ccc(-c2cc(-n3cccc3)c3ccccc3n2)cc1` had an IC50 on Aromatase [3] of 800 nM. With `C[C@]12Cc3cc[nH]c3C(=O)[C@@H]1CC[C@@H]1[C@@H]2CC[C@]2(C)[C@@H](O)CC[C@@H]12`, the IC50 on Aromatase [4] came out at 512 nM. On Aromatase [5], `C[C@]12CCC(=O)C(O)=C1CC[C@@H]1[C@@H]2CC[C@]2(C)C(=O)CC[C@@H]12` [FORMESTANE] displayed an IC50 of 30 nM. Take `CC/C(=C(\c1ccc(O)cc1)c1ccc(OCCN(C)C)cc1)c1ccccc1` [AFIMOXIFENE]: the half-maximal inhibitory concentration (IC50) at Aromatase [6] is 530 µM.

What is called IC50 is the midpoint of a concentration-inhibition curve. What is called Ki is the equilibrium dissociation constant of an inhibitor or competing ligand from its target. Higher therefore signals lower affinity.

The values are drawn from ChEMBL document CHEMBL3817793, “Recent Progress in the Discovery of Next Generation Inhibitors of Aromatase from the Structure-Function Perspective” (J Med Chem, 2016).
